Earlier results as cited in patent US20250169531A1 (priority 2023, published 2025).

Conditions: at 25° C.

For CN1CCCC1c1cccnc1 (stereo not shown) [Nicotine], the “pka of the nitrogen of the pyridine ring” value is given as 3.41.
